# According to ChEMBL document CHEMBL3991601, “The target landscape of clinical kinase drugs” (Science, 2017):
# Activity calls are given as the source filed them. Rule as the data show it, for most assays here: actives have a measured Kd and inactives only a lower limit.
# Tests used:
# Septin-9 = target: T1, Septin-9 (Homo sapiens, UniProt Q9UHD8)
# T1 sequence (Q9UHD8 whole entry): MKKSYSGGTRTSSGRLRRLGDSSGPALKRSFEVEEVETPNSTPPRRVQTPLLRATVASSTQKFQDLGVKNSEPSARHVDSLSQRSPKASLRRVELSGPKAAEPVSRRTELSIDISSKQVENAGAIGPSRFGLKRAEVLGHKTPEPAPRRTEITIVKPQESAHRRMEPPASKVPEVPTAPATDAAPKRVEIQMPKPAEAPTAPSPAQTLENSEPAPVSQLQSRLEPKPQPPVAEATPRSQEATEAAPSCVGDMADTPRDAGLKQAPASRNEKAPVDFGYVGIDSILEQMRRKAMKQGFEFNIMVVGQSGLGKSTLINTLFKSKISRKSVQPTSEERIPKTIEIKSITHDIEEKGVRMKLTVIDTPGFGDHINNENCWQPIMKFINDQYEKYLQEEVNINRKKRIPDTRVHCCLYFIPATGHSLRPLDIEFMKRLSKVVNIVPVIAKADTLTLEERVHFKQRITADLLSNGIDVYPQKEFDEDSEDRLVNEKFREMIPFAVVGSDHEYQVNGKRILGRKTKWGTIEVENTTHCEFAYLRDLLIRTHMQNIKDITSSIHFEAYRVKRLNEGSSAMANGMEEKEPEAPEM
# [1] = target: Calcium/calmodulin-dependent protein kinase type II subunit gamma (Homo sapiens, UniProt Q13555)
# Calcium/calmodulin-dependent protein kinase type II subunit gamma, sequence (Q13555 whole entry): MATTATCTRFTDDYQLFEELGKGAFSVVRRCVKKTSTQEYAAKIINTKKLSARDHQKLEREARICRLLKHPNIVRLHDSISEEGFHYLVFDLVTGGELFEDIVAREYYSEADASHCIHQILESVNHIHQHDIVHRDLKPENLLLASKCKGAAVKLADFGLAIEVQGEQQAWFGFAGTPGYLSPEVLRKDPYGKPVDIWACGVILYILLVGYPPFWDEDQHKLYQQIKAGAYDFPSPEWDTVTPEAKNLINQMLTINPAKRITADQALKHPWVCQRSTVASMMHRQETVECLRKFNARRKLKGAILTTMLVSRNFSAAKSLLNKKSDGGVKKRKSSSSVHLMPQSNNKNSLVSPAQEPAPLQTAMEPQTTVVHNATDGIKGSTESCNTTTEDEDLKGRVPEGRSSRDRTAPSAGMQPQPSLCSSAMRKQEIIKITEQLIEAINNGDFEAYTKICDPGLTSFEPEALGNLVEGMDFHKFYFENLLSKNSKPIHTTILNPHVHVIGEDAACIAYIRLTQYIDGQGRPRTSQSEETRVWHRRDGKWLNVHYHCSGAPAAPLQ
# [2] = target: Cyclin-dependent kinase 5 (Homo sapiens, UniProt Q00535)
# Cyclin-dependent kinase 5, sequence (Q00535 whole entry): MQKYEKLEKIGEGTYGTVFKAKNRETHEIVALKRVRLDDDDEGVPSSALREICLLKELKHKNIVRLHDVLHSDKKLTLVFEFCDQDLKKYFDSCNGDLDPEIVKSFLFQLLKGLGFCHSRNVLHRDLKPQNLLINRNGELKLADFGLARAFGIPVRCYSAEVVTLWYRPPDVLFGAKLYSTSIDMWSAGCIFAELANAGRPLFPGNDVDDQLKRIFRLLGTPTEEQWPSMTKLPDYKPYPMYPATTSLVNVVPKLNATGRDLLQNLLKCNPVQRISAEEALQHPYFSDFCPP
# Ephrin type-B receptor 4 = target: T2, Ephrin type-B receptor 4 (Homo sapiens, UniProt P54760)
# T2 sequence (P54760 whole entry): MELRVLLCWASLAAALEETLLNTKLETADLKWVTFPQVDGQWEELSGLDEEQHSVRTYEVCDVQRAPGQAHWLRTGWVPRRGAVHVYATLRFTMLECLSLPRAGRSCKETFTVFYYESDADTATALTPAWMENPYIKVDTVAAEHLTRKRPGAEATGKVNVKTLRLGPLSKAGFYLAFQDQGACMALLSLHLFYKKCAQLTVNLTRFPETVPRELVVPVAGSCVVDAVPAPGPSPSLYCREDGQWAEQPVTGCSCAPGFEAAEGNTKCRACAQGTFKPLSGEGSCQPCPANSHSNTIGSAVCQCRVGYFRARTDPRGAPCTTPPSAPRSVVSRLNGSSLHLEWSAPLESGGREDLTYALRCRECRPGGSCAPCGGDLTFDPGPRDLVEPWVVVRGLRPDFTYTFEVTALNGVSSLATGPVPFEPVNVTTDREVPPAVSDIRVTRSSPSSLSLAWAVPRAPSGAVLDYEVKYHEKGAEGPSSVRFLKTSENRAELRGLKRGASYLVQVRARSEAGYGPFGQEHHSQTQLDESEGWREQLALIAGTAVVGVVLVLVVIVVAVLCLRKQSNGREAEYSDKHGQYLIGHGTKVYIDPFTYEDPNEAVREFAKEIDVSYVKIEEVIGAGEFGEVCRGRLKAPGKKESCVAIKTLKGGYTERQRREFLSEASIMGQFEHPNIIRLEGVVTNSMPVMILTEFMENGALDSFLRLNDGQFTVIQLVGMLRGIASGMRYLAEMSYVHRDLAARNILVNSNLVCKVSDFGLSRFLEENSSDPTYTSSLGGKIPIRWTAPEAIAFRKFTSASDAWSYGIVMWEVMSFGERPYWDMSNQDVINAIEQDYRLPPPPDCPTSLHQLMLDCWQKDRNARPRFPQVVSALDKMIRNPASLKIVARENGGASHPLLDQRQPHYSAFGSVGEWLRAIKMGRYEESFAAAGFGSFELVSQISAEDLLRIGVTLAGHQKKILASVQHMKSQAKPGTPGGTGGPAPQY
# [3] = target: Platelet-derived growth factor receptor beta (Homo sapiens, UniProt P09619)
# Platelet-derived growth factor receptor beta, sequence (P09619 whole entry): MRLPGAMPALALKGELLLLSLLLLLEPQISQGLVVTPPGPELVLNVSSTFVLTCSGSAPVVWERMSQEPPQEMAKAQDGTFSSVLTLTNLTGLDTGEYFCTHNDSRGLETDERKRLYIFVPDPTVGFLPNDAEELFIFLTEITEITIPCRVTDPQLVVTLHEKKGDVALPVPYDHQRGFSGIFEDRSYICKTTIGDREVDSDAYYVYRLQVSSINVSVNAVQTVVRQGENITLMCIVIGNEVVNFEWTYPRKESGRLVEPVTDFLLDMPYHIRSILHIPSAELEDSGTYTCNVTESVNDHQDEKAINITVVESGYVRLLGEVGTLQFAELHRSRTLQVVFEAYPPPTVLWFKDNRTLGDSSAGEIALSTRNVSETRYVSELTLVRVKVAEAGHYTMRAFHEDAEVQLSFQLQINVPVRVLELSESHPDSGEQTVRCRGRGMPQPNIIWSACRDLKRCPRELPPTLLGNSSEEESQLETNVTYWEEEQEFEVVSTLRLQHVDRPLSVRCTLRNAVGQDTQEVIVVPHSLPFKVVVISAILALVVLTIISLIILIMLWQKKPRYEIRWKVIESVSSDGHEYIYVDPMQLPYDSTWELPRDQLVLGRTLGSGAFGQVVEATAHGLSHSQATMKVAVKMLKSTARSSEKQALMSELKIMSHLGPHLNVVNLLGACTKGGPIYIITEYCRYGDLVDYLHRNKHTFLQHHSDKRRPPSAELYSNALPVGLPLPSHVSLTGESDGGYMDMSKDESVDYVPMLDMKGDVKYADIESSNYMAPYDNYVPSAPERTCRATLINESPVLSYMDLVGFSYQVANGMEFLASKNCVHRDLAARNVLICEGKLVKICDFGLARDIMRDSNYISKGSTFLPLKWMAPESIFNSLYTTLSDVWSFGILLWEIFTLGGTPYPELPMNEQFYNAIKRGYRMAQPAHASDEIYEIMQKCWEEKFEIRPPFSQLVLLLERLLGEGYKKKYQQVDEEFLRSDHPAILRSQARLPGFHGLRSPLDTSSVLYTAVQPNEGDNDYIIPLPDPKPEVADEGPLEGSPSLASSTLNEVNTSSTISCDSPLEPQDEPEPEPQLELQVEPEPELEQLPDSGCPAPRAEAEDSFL
# Obg-like ATPase 1 = Obg-like ATPase 1 (Homo sapiens, UniProt Q9NTK5)
# Obg-like ATPase 1, sequence (Q9NTK5 whole entry, looked up): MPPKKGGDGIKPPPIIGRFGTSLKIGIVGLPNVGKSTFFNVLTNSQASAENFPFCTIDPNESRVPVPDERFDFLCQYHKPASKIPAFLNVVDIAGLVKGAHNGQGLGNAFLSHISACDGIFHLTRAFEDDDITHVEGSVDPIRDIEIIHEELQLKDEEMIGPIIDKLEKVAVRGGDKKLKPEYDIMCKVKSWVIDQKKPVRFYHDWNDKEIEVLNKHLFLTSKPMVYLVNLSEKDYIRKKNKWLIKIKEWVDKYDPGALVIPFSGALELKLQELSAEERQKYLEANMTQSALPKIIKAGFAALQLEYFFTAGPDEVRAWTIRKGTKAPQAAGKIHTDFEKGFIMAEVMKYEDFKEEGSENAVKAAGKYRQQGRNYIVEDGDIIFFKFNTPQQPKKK
# [4] = target: Eukaryotic translation initiation factor 2-alpha kinase 1 (Homo sapiens, UniProt Q9BQI3)
# Eukaryotic translation initiation factor 2-alpha kinase 1, sequence (Q9BQI3 whole entry): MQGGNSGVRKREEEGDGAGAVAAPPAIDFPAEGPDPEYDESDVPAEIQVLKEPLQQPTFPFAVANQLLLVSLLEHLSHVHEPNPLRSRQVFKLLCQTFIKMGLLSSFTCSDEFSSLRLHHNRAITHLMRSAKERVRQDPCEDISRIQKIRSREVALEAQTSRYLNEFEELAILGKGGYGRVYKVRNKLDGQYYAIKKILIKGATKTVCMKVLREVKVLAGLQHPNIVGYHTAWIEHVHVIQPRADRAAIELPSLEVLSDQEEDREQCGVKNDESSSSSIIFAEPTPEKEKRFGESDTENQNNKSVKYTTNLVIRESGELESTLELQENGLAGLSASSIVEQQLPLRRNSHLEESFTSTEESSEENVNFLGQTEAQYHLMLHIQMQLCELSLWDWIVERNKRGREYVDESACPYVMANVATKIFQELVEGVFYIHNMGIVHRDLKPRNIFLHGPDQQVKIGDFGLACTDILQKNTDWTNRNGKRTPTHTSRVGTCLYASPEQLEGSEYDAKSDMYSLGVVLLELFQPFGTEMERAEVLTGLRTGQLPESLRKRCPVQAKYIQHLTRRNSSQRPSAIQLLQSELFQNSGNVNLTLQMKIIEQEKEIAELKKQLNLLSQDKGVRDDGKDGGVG
# Also: in the data inactive means no Kd found up to 30 µM.
Kd (Septin-9),Kd [1],Kd [2],Kd (Ephrin type-B receptor 4),Kd [3],Kd (Obg-like ATPase 1),Kd [4],Structure (SMILES)
> 30 µM (inactive),> 30 µM (inactive),> 30 µM (inactive),> 30 µM (inactive),> 30 µM (inactive),> 30 µM (inactive),> 30 µM (inactive),CCc1cc2c(cc1N1CCC(N3CCOCC3)CC1)C(C)(C)c1[nH]c3cc(C#N)ccc3c1C2=O [ALECTINIB]
> 30 µM (inactive),> 30 µM (inactive),> 30 µM (inactive),> 30 µM (inactive),> 30 µM (inactive),> 30 µM (inactive),> 30 µM (inactive),COc1ccc2c(OCc3nnc4ccc(-c5ccccc5)nn34)ccnc2c1 [AMG-208]
> 30 µM (inactive),> 30 µM (inactive),> 30 µM (inactive),> 30 µM (inactive),> 30 µM (inactive),> 30 µM (inactive),> 30 µM (inactive),S=C(NCc1ccc2c(c1)OCO2)N1CCN(c2ncnc3c2oc2ccccc23)CC1 [AMUVATINIB]
> 30 µM (inactive),> 30 µM (inactive),> 30 µM (inactive),> 30 µM (inactive),> 30 µM (inactive),> 30 µM (inactive),> 30 µM (inactive),Cc1cc(Nc2nc(N[C@@H](C)c3ncc(F)cn3)ncc2Cl)n[nH]1 [AZD-1480]
> 30 µM (inactive),> 30 µM (inactive),> 30 µM (inactive),> 30 µM (inactive),> 30 µM (inactive),> 30 µM (inactive),> 30 µM (inactive),COc1ccc(-c2ccc3ncc4c(c3c2)n(-c2ccc(N3CCNCC3)c(C(F)(F)F)c2)c(=O)n4C)cn1 [BGT-226 FREE BASE]
> 30 µM (inactive),> 30 µM (inactive),> 30 µM (inactive),> 30 µM (inactive),> 30 µM (inactive),> 30 µM (inactive),> 30 µM (inactive),COc1cc2nccc(Oc3ccc(NC(=O)C4(C(=O)Nc5ccc(F)cc5)CC4)cc3)c2cc1OC [CABOZANTINIB]
> 30 µM (inactive),> 30 µM (inactive),> 30 µM (inactive),> 30 µM (inactive),> 30 µM (inactive),> 30 µM (inactive),> 30 µM (inactive),c1cc(OCCN2CCCCC2)cc(-c2n[nH]c3ccc(-c4nc[nH]n4)cc23)c1 [CC-401]
> 30 µM (inactive),> 30 µM (inactive),> 30 µM (inactive),> 30 µM (inactive),> 30 µM (inactive),> 30 µM (inactive),> 30 µM (inactive),COc1cc2ncnc(Nc3ccc(F)c(Cl)c3)c2cc1NC(=O)/C=C/CN1CCCCC1 [DACOMITINIB ANHYDROUS]
> 30 µM (inactive),> 30 µM (inactive),> 30 µM (inactive),> 30 µM (inactive),> 30 µM (inactive),> 30 µM (inactive),> 30 µM (inactive),COc1cc(Nc2ncc(F)c(Nc3ccc4c(n3)N(COP(=O)(O)O)C(=O)C(C)(C)O4)n2)cc(OC)c1OC [FOSTAMATINIB]
> 30 µM (inactive),> 30 µM (inactive),> 30 µM (inactive),> 30 µM (inactive),> 30 µM (inactive),> 30 µM (inactive),> 30 µM (inactive),O=S(=O)(c1cccc2c(O)nccc12)N1CCCNCC1 [HYDROXYFASUDIL]
> 30 µM (inactive),> 30 µM (inactive),> 30 µM (inactive),> 30 µM (inactive),> 30 µM (inactive),> 30 µM (inactive),> 30 µM (inactive),C#Cc1cccc(Nc2ncnc3cc4c(cc23)OCCOCCOCCO4)c1 [ICOTINIB]
> 30 µM (inactive),> 30 µM (inactive),> 30 µM (inactive),> 30 µM (inactive),> 30 µM (inactive),> 30 µM (inactive),> 30 µM (inactive),COc1cc2ncnc3c2cc1OCCCCCN(C)Cc1ccc(Br)cc1N3 [JNJ-26483327]
> 30 µM (inactive),> 30 µM (inactive),> 30 µM (inactive),> 30 µM (inactive),> 30 µM (inactive),> 30 µM (inactive),> 30 µM (inactive),Cc1ccc(C(=O)Nc2ccc(Oc3cc4cnn(C)c4cc3-c3cn[nH]c3)c(F)c2)c(=O)n1-c1ccc(F)cc1 [MERESTINIB]
> 30 µM (inactive),> 30 µM (inactive),> 30 µM (inactive),> 30 µM (inactive),> 30 µM (inactive),> 30 µM (inactive),> 30 µM (inactive),O=C(NOC[C@H](O)CO)c1ccc(F)c(F)c1Nc1ccc(I)cc1F [MIRDAMETINIB]
> 30 µM (inactive),> 30 µM (inactive),> 30 µM (inactive),> 30 µM (inactive),> 30 µM (inactive),> 30 µM (inactive),> 30 µM (inactive),COc1cccc2cc(-c3nc([C@H]4CC[C@H](C(=O)O)CC4)n4ncnc(N)c34)[nH]c12 [OSI-027]
> 30 µM (inactive),> 30 µM (inactive),> 30 µM (inactive),> 30 µM (inactive),> 30 µM (inactive),> 30 µM (inactive),> 30 µM (inactive),O=C(NC[C@H](O)CO)c1ccncc1Nc1ccc(I)cc1F [PIMASERTIB]

Structure (SMILES),Kd (Septin-9),Kd [1],Kd [2],Kd (Ephrin type-B receptor 4),Kd [3],Kd (Obg-like ATPase 1),Kd [4]
Cc1c(NC(=O)OC[C@@H]2COCCN2)cn2ncnc(Nc3ccc4c(cnn4Cc4cccc(F)c4)c3)c12 [AC-480],> 30 µM (inactive),> 30 µM (inactive),> 30 µM (inactive),> 30 µM (inactive),> 30 µM (inactive),> 30 µM (inactive),> 30 µM (inactive)
NC[C@@](O)(c1ccc(Cl)cc1)c1ccc(-c2cn[nH]c2)cc1 [AT-13148],> 30 µM (inactive),> 30 µM (inactive),> 30 µM (inactive),> 30 µM (inactive),> 30 µM (inactive),> 30 µM (inactive),> 30 µM (inactive)
CNC(=O)c1ccc(Nc2ncc(C(F)(F)F)c(NCc3nccnc3N(C)S(C)(=O)=O)n2)cc1 [DEFACTINIB],> 30 µM (inactive),> 30 µM (inactive),1.41 µM (active),> 30 µM (inactive),> 30 µM (inactive),> 30 µM (inactive),> 30 µM (inactive)
Cc1c(Cn2c(C)nc3c(C(=O)O)cc(N4CCOCC4)cc32)cccc1C(F)(F)F [GSK-2636771],> 30 µM (inactive),> 30 µM (inactive),> 30 µM (inactive),> 30 µM (inactive),> 30 µM (inactive),> 30 µM (inactive),> 30 µM (inactive)
C=CC(=O)Nc1cc(Nc2nccc(-c3cn(C)c4ccccc34)n2)c(OC)cc1N(C)CCN(C)C [OSIMERTINIB],> 30 µM (inactive),> 30 µM (inactive),> 30 µM (inactive),> 30 µM (inactive),> 30 µM (inactive),> 30 µM (inactive),> 30 µM (inactive)
CC(C)CC(=O)Nc1[nH]nc2c1CN(C(=O)C1CCN(C)CC1)C2(C)C [PHA-793887],> 30 µM (inactive),> 30 µM (inactive),0.135 µM (active),> 30 µM (inactive),> 30 µM (inactive),> 30 µM (inactive),> 30 µM (inactive)
COc1cc(F)c(F)c(Nc2ccc(I)cc2F)c1NS(=O)(=O)C1(C[C@H](O)CO)CC1 [REFAMETINIB],> 30 µM (inactive),> 30 µM (inactive),> 30 µM (inactive),> 30 µM (inactive),> 30 µM (inactive),> 30 µM (inactive),> 30 µM (inactive)
